Measured values: patent US8623405B2, “Finely divided composition containing poorly water soluble substance” (Takeda Pharmaceutical Company Limited, priority 2005, dated 2014)

Tests used:
Assay type in all cases: physicochemical
[1] = Degree of crystallinity of composition after pulverization (powder X-ray diffraction, Vonk method); conditions: after pulverization (freeze-dried pulverized suspension of Example 1)
Method: A powder obtained by freeze-drying the pulverized suspension obtained in Example 1 was enclosed in a quartz glass capillary and measured using a powder X-ray diffraction measurement apparatus (Rigaku Corporation, ultraX TTR2-300), Cu rotating target, parallel beam method (50 kV, 300 mA), scanning angle 3-120 degrees, scan step 0.02 degree/counting time 0.6 sec. The degree of crystallinity was calculated from the obtained X-ray diffraction profile using the Vonk method.
The X-ray diffraction profiles were obtained by measurements using the above-mentioned measurement apparatuses and conditions.

[2] = as above; conditions: before pulverization
[3] = Particle size measurement of pulverized suspensions (laser diffraction/scattering LA-920)
[4] = as above; conditions: after pulverization (Example 1, ball mill with Kollidon 17PF and sodium lauryl sulfate)
Source text: The dispersion medium used for the measurement is usually water, but an aqueous solution of a substance other than the poorly water soluble substance contained in the composition and the like (for some purposes, buffer solutions at various pH levels, mimicked body fluid, 0.5% methylcellulose aqueous solution and the like) can also be used.
“90% frequency particle diameter” is a particle diameter corresponding to the 90% frequency of the above-described integral distribution curve and, in the present invention, means the particle diameter of 90% frequency (90% frequency particle diameter) of the composition dispersed in a liquid, as measured using a laser diffraction/scattering particle size distribution analyzer (LA-920, Horiba Ltd.).
As a dispersion medium, purified water was used.

[5] = after pulverization (Example 1, ball mill with Kollidon 17PF and sodium lauryl sulfate)
[6] = before pulverization, substances used in Example 1

Structure (SMILES) | degree of crystallinity [1] [%] | turbulent factor [1] | degree of crystallinity [2] [%] | turbulent factor [2] | particle size: D50 [3, 5] [μm] | particle size: D50 [3, 6] [μm] | D90 [4] [μm]
CCC1=C(C)CN(C(=O)NCCc2ccc(S(=O)(=O)NC(=O)N[C@H]3CC[C@H](C)CC3)cc2)C1=O [glimepiride] | 68.7 | 2.249 | 73.7 | 0.622 | 0.39 | 1.67 | 0.55
FC(F)(F)c1ccc(/C=C/c2nc(COc3ccc(CCCCn4ccnn4)cc3)co2)cc1 [compound A, 1-(4-{4-[(2-{(E)-2-[4-(trifluoromethyl)phenyl]ethenyl}-1,3-oxazol-4-yl)methoxy]phenyl}butyl)-1H-1,2,3-triazole] | 61.3 | 1.412 | 74.7 | −0.163 | 0.42 | 5.68 | 0.68
COc1ccc2c(c1)c(CC(=O)O)c(C)n2C(=O)c1ccc(Cl)cc1 [indomethacin] | 89.8 | 0.793 | 99.9 | −0.001 | 0.36 | 9.61 | 0.50
COc1cc(NS(=O)(=O)c2ccc(N)cc2)nc(OC)n1 [sulfadimethoxine] | – | – | – | – | 0.44 | – | 0.65
CC(C(=O)O)c1cccc(C(=O)c2ccccc2)c1 (stereo not shown) [ketoprofen, Ketoprofen] | – | – | – | – | 0.50 | – | 0.77
COC1=CC(=O)C[C@@H](C)[C@]12Oc1c(Cl)c(OC)cc(OC)c1C2=O [griseofluvin, 7-chloro-2′,4,6-trimethoxy-6′-methylspiro[benzofuran-2(3H),1′-[2]cyclohexene]-3,4′-dione] | – | – | – | – | 0.35 | 6.35 | 0.50
